Results: patent US8236761B2, “C-Met receptor regulation by angiotensin IV (AT4) receptor ligands” (Washington State University Research Foundation, priority 2006, dated 2012)
Non-standard residues stand in square brackets, D forms with d. No end group written: not given here. Nle = CCCC[C@H](N)C(=O)O

How the values were obtained:
MDCK cells = assay: c-Met/HGF stimulated MDCK cell proliferation (MTT); type: cell-based, canine; details: HGF 10 ng/ml, COMPOUND 2 10^−6M to 10^−14M, four days
Procedure: (§1) Thereafter, 10 ng/ml of HGF alone and with the indicated concentrations of Norleual in a 1% FBS DMEM were added to the cells. The cells were cultured under these conditions for four days. On the fourth day, the treatment media was aspirated and replaced with 5 mg/ml of MTT reagent in 0.1 M glycine buffer (Invitrogen). The MTT reagent was incubated with the cells for four hours at 37° C. before adding DMSO to solubilize the cells and record the MTT absorbance on a plate reader. The controls were treated as background and subtracted from all of the treatments to determine the increase in proliferation due solely to HGF treatment. Differences between the treatments were determined using one-way ANOVA with Bonferroni's post-hoc analysis (Prism statistical analysis software). * indicate p<0.05 vs. HGF treatment. N=6, mean+/−SEM. […] Madin-Darby Canine Kidney (MDCK) cells were plated in the wells of a 96 well plate in 100 μl of complete Dulbecco's Modified Eagle's Medium (DMEM). The cells were serum starved for 24 hours to induce quiescence. […] Absorbance of the cleaved substrate was quantitated on a Biotek Synergy HT 2 plate reader according to the manufacturer's instructions. […] The data was analyzed with Prism® (GraphPad, San Diego, Calif.) statistical analysis software. * indicates p<0.01 vs. HGF treatment by Tukey's post-hoc analysis. […]

[1] = system: urokinase plasminogen activator (uPA); assay: c-Met/HGF urokinase plasminogen activator (uPA) induction in MDCK cells; type: cell-based, canine; details: HGF 10 ng/ml, Norleual 10^−10 M and 10^−12 M, 48 hours
Procedure: as §1

[2] = system: B16-F10 murine melanoma cells; assay: B16-F10 scratch wound closure assay; type: cell-based; details: six hours after scratch
Procedure: Scratch Assay. Confluent B16-F10 cells in 48 well plates were scratched with a 200 μl pipette tip. Wells were treated with vehicle, HGF, and/or Norleual. Photos were taken at various time points. Photos were graded by two investigators.
See Example 1 for Materials and Methods. Norleual was applied to HGF treated B16-F10 murine melanoma cells in a scratch wound assay. HGF accelerated the wound closure, however Norleual was able to attenuate HGF stimulated closure six hours after scratch (FIG. 11A).

[3] = system: aortic ring angiogenic sprouts; assay: Ex vivo mouse aortic ring angiogenesis assay; details: 100 pM Norleual, four days, EGM-2
Procedure: (§2) FIG. 16 depicts inhibition of angiogenesis by Norleual (Compound 2, SEQ ID NO:43) in the mouse aortic ring assay. Rings were incubated in EGM-2 media (Cambrex) with (n=8) or without (n=6) 100 pM Norleual for four days. Digital photos of the rings were taken on day four. FIG. 16A: Quantification of aortic ring angiogenesis. Areas covered by angiogenic sprouts were quantified from day four ring photos, control (−) and Norelual treated (+) (p-value=0.012* and error bars indicate ±SEM). FIG. 16B: HUVECs were treated for 5 minutes with HGF and/or Norleual at indicated concentrations. Lysates were IP with anti-c-Met and IB with anti-c-Met or Gab1.
Aortic ring assay. 48-well plates were coated with Growth Factor Reduced Matrigel (BD Biosciences, San Jose, Calif., USA, thick gel method). Under microscopic dissection, the thoracic aorta of a 6 week-old C57 mouse was cut into 0.5 mm sections, washed in PBS, and placed in the Matrigel-coated wells. […] Photos were taken and angiogenic area was measured using Image J (Image Processing and Data Analysis in Java, available from NIH, Bethesda, Md.). […]
(§3) See Example 1 for Materials and Methods. Angiogenesis was evaluated with the ex vivo mouse aortic ring assay in the presence and absence of Norleual. […]

c-Met = c-Met (Homo sapiens, UniProt P08581); assay: HGF-induced Met/Gab1 association in HUVEC (IP/IB); type: cell-based; details: 5 minutes treatment
Chain of c-Met (P08581 308-1390 limits assumed): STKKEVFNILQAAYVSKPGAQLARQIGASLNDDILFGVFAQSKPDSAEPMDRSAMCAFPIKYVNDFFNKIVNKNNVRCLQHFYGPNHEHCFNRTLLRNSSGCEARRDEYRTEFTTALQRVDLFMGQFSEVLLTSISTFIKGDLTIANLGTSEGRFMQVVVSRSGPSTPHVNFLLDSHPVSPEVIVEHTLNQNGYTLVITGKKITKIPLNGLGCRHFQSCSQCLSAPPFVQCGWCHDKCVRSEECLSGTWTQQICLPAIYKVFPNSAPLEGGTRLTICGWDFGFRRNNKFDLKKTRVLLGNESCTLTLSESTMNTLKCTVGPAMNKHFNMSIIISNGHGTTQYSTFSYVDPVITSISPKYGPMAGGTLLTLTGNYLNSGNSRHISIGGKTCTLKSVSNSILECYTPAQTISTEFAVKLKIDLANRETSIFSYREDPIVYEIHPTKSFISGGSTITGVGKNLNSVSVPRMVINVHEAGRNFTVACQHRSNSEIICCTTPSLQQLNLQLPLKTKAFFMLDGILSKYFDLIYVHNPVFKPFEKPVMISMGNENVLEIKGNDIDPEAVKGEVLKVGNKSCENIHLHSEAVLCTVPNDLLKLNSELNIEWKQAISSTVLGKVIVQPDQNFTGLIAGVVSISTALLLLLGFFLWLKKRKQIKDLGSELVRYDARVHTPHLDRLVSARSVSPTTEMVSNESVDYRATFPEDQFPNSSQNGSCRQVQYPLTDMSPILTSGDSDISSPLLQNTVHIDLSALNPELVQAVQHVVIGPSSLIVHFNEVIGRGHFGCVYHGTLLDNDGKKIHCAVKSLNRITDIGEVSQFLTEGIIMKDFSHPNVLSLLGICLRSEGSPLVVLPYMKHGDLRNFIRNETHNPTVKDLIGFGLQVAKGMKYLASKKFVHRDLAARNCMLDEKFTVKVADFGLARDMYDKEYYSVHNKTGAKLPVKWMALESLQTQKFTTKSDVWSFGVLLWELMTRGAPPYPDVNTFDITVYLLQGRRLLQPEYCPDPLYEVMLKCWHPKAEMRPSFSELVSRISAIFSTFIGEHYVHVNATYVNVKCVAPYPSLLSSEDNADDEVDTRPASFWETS
Chain of c-Met (P08581 25-307 limits assumed): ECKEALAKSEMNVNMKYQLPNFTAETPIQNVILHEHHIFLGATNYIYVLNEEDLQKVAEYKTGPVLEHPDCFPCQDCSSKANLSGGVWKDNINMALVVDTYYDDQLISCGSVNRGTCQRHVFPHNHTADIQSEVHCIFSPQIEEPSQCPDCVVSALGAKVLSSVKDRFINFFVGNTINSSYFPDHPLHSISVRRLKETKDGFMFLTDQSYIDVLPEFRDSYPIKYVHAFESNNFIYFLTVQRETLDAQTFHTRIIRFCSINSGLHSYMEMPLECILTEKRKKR
Procedure: as §2
Immunoprecipitation and Western blotting. Cells were serum starved for two hours in DMEM before treatment. Cells were harvested using RIPA lysis buffer (Upstate Biotechnol. Inc., Lake Placid, N.Y.) with phosphatase inhibitor cocktails 1 and 2 (Sigma, St Louis, Mo., USA). Protein concentration was determined using the BCA assay (Pierce, Rockford, Ill., USA). Lysates were incubated with antibody overnight at 4° C. Immunoprecipitation controls received mouse non-specific Ig (Upstate). […] The film images were digitized and analyzed using TotalLab® software (AmershamPharmacia/GE HealthCare, Piscataway, N.J.).
as §3

In the case of “Nle-Tyr-Leu-ψ-His-Pro-Phe ([Nle]YLHPF; also: reduced peptide bond psi(CH2NH2) between Leu and His) [Norleual]”, the “HGF stimulated MDCK cellular proliferation” value (MDCK cells) is reported as “attenuation”, the “HGF stimulated MDCK cellular proliferation” value (MDCK cells; listed as Compound 2) is reported as “inhibited” and the “c-Met/HGF uPA induction” value [1] is reported as “attenuation”. The “HGF stimulated scratch wound closure” value [2] was “attenuate”, the “Angiogenic growth of aortic rings” value [3] was “significantly attenuated” and the “HGF-induced Met/Gab1 association in HUVEC” value (c-Met) was “inhibited”.
